Assay results published in article PMC12444563 (ACS Omega, 2025).
Starred links: 1 amine or outer side, 2 acyl side, 3 side chain; linkers in the order of their positions; H or OH if unused. Non-standard residues stand in square brackets, D forms with d. Residues, ends and D or L forms follow the SMILES beside them. *: point of attachment. Paclitaxel(2'-OCO-DMEDA) = CC(=O)O[C@H]1C(=O)[C@@]2(C)[C@H]([C@H](OC(=O)c3ccccc3)[C@]3(O)C[C@H](OC(=O)[C@H](OC(=O)N(C)CCN(C)*)[C@@H](NC(=O)c4ccccc4)c4ccccc4)C(C)=C1C3(C)C)[C@]1(OC(C)=O)CO[C@@H]1C[C@@H]2O; Fmoc = O=C(OCC1c2ccccc2-c2ccccc21)*; PABC = O=C(OCc1ccc(N[*:1])cc1)[*:2]

Target: T1, bovine spleen Cathepsin B (Bos taurus, UniProt P07688)
T1 construct: bovine spleen Cathepsin B (SigmaAldrich C6286, ≥10 units/mg protein); purchased SigmaAldrich C6286; host or cells: bovine spleen (tissue-derived)
Assay: Cathepsin B cleavage assay (UHPLC-HRMS Orbitrap analysis)
Format: biochemical
Conditions: for % residual compound, Average %: 37 °C, pH 5.4, 5 μM, triplicate
Protocol: The Cathepsin B cleavage assay was performed by incubating compounds 1–4 at 37 °C under gently shaking conditions in the presence of the active form of Cathepsin B. More specifically, 122.4 μL of an enzyme-activating solution (composed of 7.48 mg of L-cysteine dissolved in 2 mL of a buffer solution containing 20 mM NaOAc, 1 mM EDTA, pH 5.4 to give a final cysteine concentration of 30.88 mM) was mixed with 12.6 μL of enzyme stock solution, previously prepared by solubilization of bovine spleen Cathepsin B (SigmaAldrich C6286, ≥10 units/mg protein) in 1 mL of buffer solution (without cysteine) to give a concentration of enzyme stock solution of 12 units/mL. After the dilution, the final concentration of Cathepsin B was 1.12 u/mL. Then, the diluted enzyme solution was incubated at 37 °C for 15 min to activate Cathepsin B. After 15 min, 6 μL of 117 μM compound solution, previously prepared by diluting 5.85 μL of 1 mM stock solution of the compound in 44.15 μL of dry DMSO (giving a 117 μM solution), was added to the test tube and the cleavage assay solution was incubated at 37 °C under gentle shaking conditions. […] The solutions were then centrifuged for 10 min at 6000 rpm. Blank solutions were prepared for each compound by dilution of 6 μL of a 117 μM compound solution into 135 μL of an enzyme-activating solution. UHPLC-MS analyses were carried out using a Vanquish UHPLC System (Thermo Fisher Scientific) and Orbitrap Exploris 120 (Thermo Fisher Scientific). Thermo Scientific Xcalibur software was used to control the instruments and acquire the data. Freestyle 1.8 software was used for processing the data. UHPLC chromatographic separations were performed on a reversed-phase column Accucore C18 50 × 2.1 mm, 2.6 μm (Thermo Fisher Scientific). A gradient system was used with the mobile phase consisting of solvent A: H2O + 0.05% formic acid and solvent B: acetonitrile. The areas of the peak of compounds 1–4 in the extracted ion chromatogram were used to evaluate the kinetics of the cleavage process. The percentage of residual compound was calculated as the ratio between the areas of the peak of the full compound at the desired time point and in the blank analysis. %Residualcompound=areacompoundatthedesiredtimepoint/areacompoundintheblanksolution×100

[1] = 2 min incubation with Cathepsin B
[2] = 15 min incubation with Cathepsin B
[3] = 30 min incubation with Cathepsin B
[4] = 60 min incubation with Cathepsin B
[5] = 120 min incubation with Cathepsin B

CC(=O)O[C@H]1C(=O)[C@@]2(C)[C@H]([C@H](OC(=O)c3ccccc3)[C@]3(O)C[C@H](OC(=O)[C@H](OC(=O)N(C)CCN(C)C(=O)OCc4ccc(NC(=O)CNC(=O)[C@H](CC(C)C)NC(=O)[C@H](Cc5ccccc5)NC(=O)CNC(=O)OCC5c6ccccc6-c6ccccc65)cc4)[C@@H](NC(=O)c4ccccc4)c4ccccc4)C(C)=C1C3(C)C)[C@]1(OC(C)=O)CO[C@@H]1C[C@@H]2O [Compound 2, Fmoc-GFLG-PABC-diamine-PTX] (Fmoc-GFLG[PABC]-{Paclitaxel(2'-OCO-DMEDA)})
% residual compound, Average % [1]: 99.63% | % residual compound, Average % [2]: 98.45% | % residual compound, Average % [3]: 95.35% | % residual compound, Average % [4]: 95.89% | % residual compound, Average % [5]: 94.14% | % residual compound, % R1 (replicate R1, 2 min): 99.33% | % residual compound, % R1 (replicate R1, 15 min): 98.52% | % residual compound, % R1 (replicate R1, 30 min): 92.26% | % residual compound, % R1 (replicate R1, 60 min): 92.45% | % residual compound, % R1 (replicate R1, 120 min): 99.27% | % residual compound, % R1 (replicate R1, 240 min): 96.36% | % residual compound, % R3 (replicate R3, 2 min): 104.39% | % residual compound, % R3 (replicate R3, 15 min): 102.02% | % residual compound, % R3 (replicate R3, 30 min): 95.37% | % residual compound, % R3 (replicate R3, 60 min): 97.64% | % residual compound, % R3 (replicate R3, 120 min): 90.86% | % residual compound, % R3 (replicate R3, 240 min): 89.52%

CC(=O)O[C@H]1C(=O)[C@@]2(C)[C@H]([C@H](OC(=O)c3ccccc3)[C@]3(O)C[C@H](OC(=O)[C@H](OC(=O)N(C)CCN(C)C(=O)OCc4ccc(NC(=O)CNC(=O)[C@H](CC(C)C)NC(=O)[C@@H]5CCCN5C(=O)CNC(=O)OCC5c6ccccc6-c6ccccc65)cc4)[C@@H](NC(=O)c4ccccc4)c4ccccc4)C(C)=C1C3(C)C)[C@]1(OC(C)=O)CO[C@@H]1C[C@@H]2O [Compound 1, Fmoc-GPLG-PABC-diamine-PTX] (Fmoc-GPLG[PABC]-{Paclitaxel(2'-OCO-DMEDA)})
% residual compound, Average % [1]: 94.40% | % residual compound, Average % [2]: 80.50% | % residual compound, Average % [3]: 73.35% | % residual compound, Average % [4]: 68.45% | % residual compound, Average % [5]: 65.40% | peak of free Paclitaxel in the incubated solution (4 h incubation with Cathepsin B, HRMS): not possible to observe | peak of free PTX in the incubated solution (24 h incubation with Cathepsin B, HRMS): confirmed the presence | cleavage kinetics compared within compounds 1-4 (Cathepsin B, compound 1: initial time points 2 min to 1 h, compound 2: over 4 h): fastest | % residual compound, % R1 (replicate R1, 2 min): 108.85% | % residual compound, % R1 (replicate R1, 15 min): 85.04% | % residual compound, % R1 (replicate R1, 30 min): 73.97% | % residual compound, % R1 (replicate R1, 60 min): 68.69% | % residual compound, % R1 (replicate R1, 120 min): 69.51% | % residual compound, % R1 (replicate R1, 240 min): 56.09% | % residual compound, % R3 (replicate R3, 2 min): 97.22% | % residual compound, % R3 (replicate R3, 15 min): 78.25% | % residual compound, % R3 (replicate R3, 30 min): 74.08% | % residual compound, % R3 (replicate R3, 60 min): 69.05% | % residual compound, % R3 (replicate R3, 120 min): 67.07% | % residual compound, % R3 (replicate R3, 240 min): 70.97%

CC(=O)O[C@H]1C(=O)[C@@]2(C)[C@H]([C@H](OC(=O)c3ccccc3)[C@]3(O)C[C@H](OC(=O)[C@H](OC(=O)N(C)CCN(C)C(=O)OCc4ccc(NC(=O)[C@H](CCCNC(N)=O)NC(=O)[C@@H](NC(=O)OCC5c6ccccc6-c6ccccc65)C(C)C)cc4)[C@@H](NC(=O)c4ccccc4)c4ccccc4)C(C)=C1C3(C)C)[C@]1(OC(C)=O)CO[C@@H]1C[C@@H]2O [Compound 3, Fmoc-VCit-PABC-diamine-PTX]
% residual compound, Average % [1]: 99.48% | % residual compound, Average % [2]: 89.60% | % residual compound, Average % [3]: 88.90% | % residual compound, Average % [4]: 82.88% | % residual compound, Average % [5]: 80.39% | % residual compound, Average % (240 min (4 h) incubation with Cathepsin B): 76% | % residual compound, % R1 (replicate R1, 2 min): 91.44% | % residual compound, % R1 (replicate R1, 15 min): 87.83% | % residual compound, % R1 (replicate R1, 30 min): 70.58% | % residual compound, % R1 (replicate R1, 60 min): 80.56% | % residual compound, % R1 (replicate R1, 120 min): 76.58% | % residual compound, % R1 (replicate R1, 240 min): 81.21% | % residual compound, % R3 (replicate R3, 2 min): 106.03% | % residual compound, % R3 (replicate R3, 15 min): 90.55% | % residual compound, % R3 (replicate R3, 30 min): 97.99% | % residual compound, % R3 (replicate R3, 60 min): 89.93% | % residual compound, % R3 (replicate R3, 120 min): 81.32% | % residual compound, % R3 (replicate R3, 240 min): 71.70%
